Reference: US8362066B2, “Compounds and methods for treating protein folding disorders” (Treventis Corporation, priority 2006, dated 2013)
“Also recorded” adds a separate entry of the source.

Key:
Aβ1-40 [1] = biological target: T1, Aβ1-40 (Homo sapiens, UniProt P05067); assay: ThT fluorescence assay, inhibition of Aβ1-40 aggregation; assay type: biochemical
T1 construct: Both Aβ1-40 and Aβ1-42 were purchased from Anaspec; purchased Anaspec
Experimental: The compounds of the invention were evaluated for activity against Aβ aggregation in a kinetic thioflavin T (ThT) fluorescence assay similar to that of Chalifour, R. J., et al., J. Biol. Chem. (2003) 278: 34874-81. IC50 values for inhibition of Aβ1-40 aggregation in the ThT fluorescence assay for a number compounds of the present invention were determined. Values were calculated by solving the equation y=(m2)/(1+(x/m3)^m4) where y is percent aggregation, x is compound concentration, and m3 is the concentration giving 50% aggregation (i.e. IC50), using KaleidaGraph 4.0 (Synergy Software). Dye-binding ThT/ThS protein aggregation assays for Aβ, tau and α-synuclein were performed as described in Example 8 of US2007/0015813.

Aβ1-42 [2] = biological target: T2, Aβ1-42 (Homo sapiens, UniProt P05067); assay: Tris-tricine SDS-PAGE, Aβ1-42 self-assembly; assay type: biochemical; conditions: versus control, FIG. 8
T2 construct: Both Aβ1-40 and Aβ1-42 were purchased from Anaspec; purchased Anaspec
Experimental: Pre-cast polyacrylamide gels were purchased from NuSep (10-20% Tris-tricine-SDS). These were chosen for their large separation range of 2.5 to 205 kDa. Molecular weight markers were purchased from Sigma Aldrich and diluted twenty fold for individual use. Three buffers were used for this technique: 1) Sample buffer (1.25 mL 0.5 M Tris-HCl (pH 6.8), 2.5 mL glycerol, 2.0 mL 10% SDS, 0.2 mL 0.5% bromophenol blue, 3.55 mL distilled water) which was used as the leading band in the gel. 2) Cathode Buffer (12.11 g tris base, 17.92 g tricine, 1 g SDS, diluted to 1 L with distilled water) which was the inner buffer in the tank assembly. 3) Anode Buffer (5× concentrated: 121.1 g tris base in 1 L of distilled water, pH 8.9 adjusted with concentrated HCl) which was the outer buffer and loaded at 1× concentration. Both Aβ1-40 and Aβ1-42 were purchased from Anaspec.
Five solutions were required to stain the gels using the silver stain protocol: 1) Fixer 1 (40% methanol, 10% acetic acid, diluted to 1 L with Millie-Q water) 2) Fixer 2 (45 g anhydrous sodium acetate, 300 mL methanol, 5 mL 25% glutaraldehyde, diluted to 1 L with Millie-Q water), 3) a) Silver stain A (15 mL of 25% ammonia solution, 0.8 g sodium hydroxide, diluted to 950 mL with Millie Q water). b) Silver stain B (6 g of silver nitrate in 50 mL Millie Q water). […]

Aβ1-40 [3] = biological target: T1, Aβ1-40; assay: TEM of Aβ1-40 fibrils; assay type: biochemical; conditions: Aβ1-40 20 μM
Experimental: (§1) A modified version of the procedure of Cohen et al. (Biochemistry 2006, 45: 4727-35) was followed for TEM analysis. Uranylacetate was used as negative stain (Electron Microscopy Sciences) and was made as a 3% solution and stored at 5° C. in the dark to reduce photodecay. Aspirated samples from ThT (Aβ1-40) and ThS (Tau 441) aggregation assays, or Aβ1-42 incubated (37° C.) for 30 min. in the presence and absence of compounds were used in the TEM analyses. Samples were carefully loaded on Formvar-coated 400 mesh copper grids (Electron Microscopy Sciences) as a 10 μL drop. After sitting for 60 seconds, excess fluid was gently dabbed off with filter paper. Next, the 3% uranylacetate was added as a drop onto the grid and left to stand for another 60 seconds. The excess fluid was again dabbed off by filter paper. Samples were left to dry for at least 30 minutes prior to being viewed on an electron microscope operating at 80 kV.

α-synuclein = α-synuclein (Homo sapiens, UniProt P37840); assay: ThT fluorescence assay, α-synuclein aggregation; assay type: biochemical; conditions: α-synuclein 4 μM; compound 100 μM and 20 μM; 96 hours, 37° C., FIG. 16
Experimental: The following procedures were used. The compounds were examined by circular dichroism (CD) to confirm their anti-amyloidogenic activity and were further evaluated for inhibition of both tau and α-synuclein aggregation in Thioflavin S (ThS) and ThT dye-binding fluorescence assays, respectively. The compounds were also evaluated in a MTT [3-(4,5-dimethylthiazol-2-yl)-2,5-diphenyltetrazolium bromide] cell viability assay (Kaneko, I., et al., J. Neurochem. (1995) 65: 2585-93). Pharmacokinetic (PK) testing was also performed. Compounds administered to mice (IP or PO dosing) had no toxicity at doses up to 300 mg/kg and were present in brain more than four hours after administration.
Dye-binding ThT/ThS protein aggregation assays for Aβ, tau and α-synuclein were performed as described in Example 8 of US2007/0015813.

[4] = system: APP/PS1 transgenic mice hippocampal slices; assay: LTP electrophysiology in hippocampal slices; assay type: cell-based; conditions: 50 μM, FIG. 18
Experimental: Electrophysiological analysis was performed on males (see detailed description in Gong, B., el al., Cell (2006) 126: 775-88). Hippocampal slices (400 μm) were cut with a tissue chopper and maintained in an interface chamber at 29° C. for 90 min prior to recording. Briefly. CA1 fEPSPs were recorded by placing both the stimulating and the recording electrodes in CA1 stratum radiatum. Basal synaptic transmission was assayed by plotting the stimulus voltages against slopes of fEPSP. For LTP experiments, a 15 min baseline was recorded every min at an intensity that evokes a response ˜35% of the maximum evoked response. LTP was induced using θ-burst stimulation (4 pulses at 100 Hz, with the bursts repeated at 5 Hz and each tetanus including 3 ten-burst trains separated by 15 sec).

Aβ1-42 [5] = biological target: T2, Aβ1-42; assay: TEM of Aβ1-42 fibrils; assay type: biochemical; conditions: Aβ1-42 20 μM, absence of ThT, FIG. 13
Experimental: as §1

T1 sequence (P05067 672-711 limits assumed): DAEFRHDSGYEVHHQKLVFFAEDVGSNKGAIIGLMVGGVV
T2 sequence (P05067 672-713 limits assumed): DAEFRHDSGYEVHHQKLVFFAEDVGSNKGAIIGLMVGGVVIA

SMILES: O=C(O)c1cccc2c(-c3c(O)c(O)cc4ccccc34)c[nH]c12 [QR-0273]
- IC50 (Aβ1-40 [1]): 10.3 µM
- effect on Aβ1-42 self-assembly (SDS-PAGE) (Aβ1-42 [2]): increase in the presence of monomer and pentamer as well as the appearance of a dimer
- Aβ1-40 fibrils (TEM) (Aβ1-40 [3]; absence of ThT, compound 100 μM, FIG. 12): increase in the number of fibrils

SMILES: O=C(O)c1ccc2[nH]cc(-c3ccc4cc(O)ccc4c3)c2c1 [QR-0217]
- inhibition of α-synuclein aggregation (ThT fluorescence) (α-synuclein): showed inhibition
- rescue of LTP impairment [4]: significantly rescued impairment of LTP; also recorded: significantly (P=0.022) rescuing impairment of LTP

SMILES: O=C(O)c1ccc2[nH]cc(-c3c(O)c(O)cc4ccccc34)c2c1 [QR-0194]
- IC50 (Aβ1-40 [1]): 17.7 µM
- Aβ1-40 fibril formation (TEM) (Aβ1-40 [3]; compound 20 μM, following ThT aggregation assay, FIG. 11): increase in fibril formation but of a different morphology
- Aβ1-42 fibrils (TEM) (Aβ1-42 [5]; compound 20 μM): apparent increase in the number of fibrils
- inhibition of α-synuclein aggregation (ThT fluorescence) (α-synuclein): showed inhibition

SMILES: COc1ccc2[nH]cc(-c3c[nH]c4ccc(N)cc34)c2c1 [QR-0185]
- IC50 (Aβ1-40 [1]): 12.5 µM
- Aβ1-42 fibrils (TEM) (Aβ1-42 [5]; compound 100 μM): decrease in fibrils
